System: KRAS-mutant PDC multicell tumor spheroid viability
Experiment: Anticancer human tumor 521955-158-R2-J5-PDC patient-derived pancreatic carcinoma cell line growth inhibition [KRAS2]
Settings: for IC50: curve of first compound; for viability, T/C: stronger effect = lower value
How it was run: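 KRAS-mutant tumor cells were grown as spheroids with HUVEC endothelial cells and human MSCs as stroma. Targeted agents were tested alone and with KRAS pathway inhibitors. Doses started at or near clinical Cmax, or 10 microM, descending half-log.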

[1] = second compound 0.1 µM, first compound 0.01 µM
[2] = second compound 0.1 µM, first compound 0.0316 µM
[3] = second compound 0.1 µM, first compound 0.1 µM
[4] = second compound 0.1 µM, first compound 0.316 µM
[5] = second compound 0.1 µM, first compound 1 µM
[6] = second compound 0.1 µM, first compound 3.16 µM
[7] = second compound 0.316 µM, first compound 0.01 µM
[8] = second compound 0.316 µM, first compound 0.0316 µM
[9] = second compound 0.316 µM, first compound 0.1 µM
[10] = second compound 0.316 µM, first compound 0.316 µM
[11] = second compound 0.316 µM, first compound 1 µM
[12] = second compound 0.316 µM, first compound 3.16 µM
[13] = second compound 1 µM, first compound 0.01 µM
[14] = second compound 1 µM, first compound 0.0316 µM
[15] = second compound 1 µM, first compound 0.1 µM
[16] = second compound 1 µM, first compound 0.316 µM
[17] = second compound 1 µM, first compound 1 µM
[18] = second compound 1 µM, first compound 3.16 µM
[19] = second compound 3.16 µM, first compound 0.01 µM
[20] = second compound 3.16 µM, first compound 0.0316 µM
[21] = second compound 3.16 µM, first compound 0.1 µM
[22] = second compound 3.16 µM, first compound 0.316 µM
[23] = second compound 3.16 µM, first compound 1 µM
[24] = second compound 3.16 µM, first compound 3.16 µM
[25] = second compound 10 µM, first compound 0.01 µM
[26] = second compound 10 µM, first compound 0.0316 µM
[27] = second compound 10 µM, first compound 0.1 µM
[28] = second compound 10 µM, first compound 0.316 µM
[29] = second compound 10 µM, first compound 1 µM
[30] = second compound 10 µM, first compound 3.16 µM
[31] = second compound 0.1 µM, first compound 10 µM
[32] = second compound 0.316 µM, first compound 10 µM
[33] = second compound 1 µM, first compound 10 µM
[34] = second compound 3.16 µM, first compound 10 µM
[35] = second compound 10 µM, first compound 10 µM
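Further: viability read after seven days of drug exposure.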

Row | SMILES | IC50 (second compound 0.1 µM) | IC50 (second compound 0.316 µM) | IC50 (second compound 1 µM) | IC50 (second compound 3.16 µM) | IC50 (second compound 10 µM) | viability, T/C [2] | viability, T/C [3] | viability, T/C [4] | viability, T/C [5] | viability, T/C [6] | viability, T/C [8] | viability, T/C [9] | viability, T/C [10] | viability, T/C [11] | viability, T/C [12] | viability, T/C [14] | viability, T/C [15] | viability, T/C [16] | viability, T/C [17] | viability, T/C [18] | other results
1 | CC1COCCN1c1cc(-c2ccnn2C)c2ccnc(-c3ccn[nH]3)c2n1 (stereo not given) + CC1OCC2(CCN(c3cnc(Sc4ccnc(N)c4Cl)c(N)n3)CC2)C1N | 18.3 nM | 16.1 nM | 13.2 nM | 13.9 nM | 10.6 nM | 27.6% | 7.87% | 9.44% | 14.9% | 16.7% | 25.4% | 6.51% | 8.34% | 12.3% | 17.1% | 29% | 7.13% | 7.87% | 11.1% | 17.2% | viability, T/C [1]: 75%; viability, T/C [7]: 67.2%; viability, T/C [13]: 56.6%; viability, T/C [19]: 59.9%; viability, T/C [20]: 25.4%; viability, T/C [21]: 7.05%; viability, T/C [22]: 7.79%; viability, T/C [23]: 10.5%; viability, T/C [24]: 16.8%; viability, T/C [25]: 51.3%; viability, T/C [26]: 27.4%; viability, T/C [27]: 7.9%; viability, T/C [28]: 8.11%; viability, T/C [29]: 11.4%; viability, T/C [30]: 15.6%
2 | CCNC(=O)CC1N=C(c2ccc(Cl)cc2)c2cc(OC)ccc2-n2c(C)nnc21 (stereo not given) + CC1OCC2(CCN(c3cnc(Sc4ccnc(N)c4Cl)c(N)n3)CC2)C1N | 289 nM | 172 nM | 127 nM | 132 nM | 92.9 nM | 71.5% | 71.2% | 47.3% | 33.8% | 26.5% | 76.3% | 61.1% | 36.9% | 29.7% | 23.6% | 66% | 51.5% | 40.4% | 25.7% | 19.6% | viability, T/C [31]: 28.7%; viability, T/C [32]: 22.6%; viability, T/C [33]: 20.8%; viability, T/C [20]: 65.8%; viability, T/C [21]: 52.2%; viability, T/C [22]: 40%; viability, T/C [23]: 23.5%; viability, T/C [24]: 20%; viability, T/C [34]: 20.4%; viability, T/C [26]: 60.7%; viability, T/C [27]: 47.8%; viability, T/C [28]: 35.7%; viability, T/C [29]: 20.6%; viability, T/C [30]: 15.9%; viability, T/C [35]: 16.9%
3 | Cn1nccc1Nc1nccc(-c2cc3c(s2)C(C)(C)N(CCN2CCOCC2)C3=O)n1 + CC1OCC2(CCN(c3cnc(Sc4ccnc(N)c4Cl)c(N)n3)CC2)C1N | 493 nM | 485 nM | 490 nM | 602 nM | 427 nM | 94.1% | 70.9% | 58.5% | 41.5% | 25% | 69.9% | 62.1% | 58.4% | 38.5% | 25.4% | 73.6% | 66.9% | 57.5% | 38.7% | 24.7% | viability, T/C [31]: 19.6%; viability, T/C [32]: 15.6%; viability, T/C [33]: 15.9%; viability, T/C [20]: 71.4%; viability, T/C [21]: 63.1%; viability, T/C [22]: 63%; viability, T/C [23]: 40.4%; viability, T/C [24]: 23.3%; viability, T/C [34]: 18.4%; viability, T/C [26]: 50.9%; viability, T/C [27]: 56%; viability, T/C [28]: 57.9%; viability, T/C [29]: 36%; viability, T/C [30]: 27.3%; viability, T/C [35]: 18.2%
4 | CC(=O)OC12COC1CC(O)C1(C)C(=O)C(O)C3=C(C)C(OC(=O)C(O)C(NC(=O)OC(C)(C)C)c4ccccc4)CC(O)(C(OC(=O)c4ccccc4)C21)C3(C)C (stereo not given) + CNCc1ccccc1-c1csc(C(C)Nc2nc(C)nc3cc(OC)c(OC)cc23)c1 | < 10 nM | < 10 nM | < 10 nM | < 10 nM | < 10 nM | 16.2% | 15.3% | 14.8% | 16.6% | 20.3% | 16.6% | 16.7% | 15.8% | 19.6% | 23.6% | 13.2% | 13.2% | 13.2% | 19.9% | 20% | viability, T/C [1]: 28.2%; viability, T/C [7]: 20.4%; viability, T/C [13]: 23%; viability, T/C [19]: 0.16%; viability, T/C [20]: 13.9%; viability, T/C [21]: 0.05%; viability, T/C [22]: 0.05%; viability, T/C [23]: 0.1%; viability, T/C [24]: 17%; viability, T/C [25]: 0.17%; viability, T/C [26]: 0.14%; viability, T/C [27]: 0.11%; viability, T/C [28]: 0.11%; viability, T/C [29]: 0.12%; viability, T/C [30]: 0.34%

Reference: PubChem BioAssay AID1963871 (Molecular Pharmacology Branch, DTP, NCI, 2024)
